Measurements: PubChem BioAssay AID248 (DTP/NCI, 2004)
Where “and” joins values, the source holds several entries; their conditions need not be identical. Equal entries are not always repeated. Toxic doses and inconclusive results are not listed. No stated cut-off is given here; in the data, active means T/C of 150% or more; inactive means T/C below 125%.

Test system: L1210 leukemia ip in BDF1 mice, survival T/C
Test: NCI In Vivo Anticancer Drug Screen. Data for tumor model L1210 Leukemia (intraperitoneal) in B6D2F1 (BDF1) mice
Settings: endpoint: mean survival time, higher = longer survival
In short: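 Ratio derived from survival: compound-dosed mice over vehicle-dosed mice, all bearing a transplantable tumor.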

[1] = dose: 50.0 mg/kg/injection, schedule: Q01DX009 (ip), vehicle: saline with Tween-80
[2] = dose: 100.0 mg/kg/injection, schedule: Q01DX009 (ip), vehicle: saline with Tween-80
[3] = dose: 100.0 mg/kg/injection, schedule: Q04DX003 (ip), vehicle: saline with Tween-80
[4] = dose: 200.0 mg/kg/injection, schedule: Q04DX003 (ip), vehicle: saline with Tween-80
[5] = dose: 400.0 mg/kg/injection, schedule: Q04DX003 (ip), vehicle: saline with Tween-80
[6] = dose: 100.0 mg/kg/injection, schedule: Q01DX009 (ip), vehicle: Klucel (hydroxypropylcellulose) (HPC)
[7] = dose: 200.0 mg/kg/injection, schedule: Q01DX009 (ip), vehicle: Klucel (hydroxypropylcellulose) (HPC)
[8] = dose: 400.0 mg/kg/injection, schedule: Q01DX009 (ip), vehicle: Klucel (hydroxypropylcellulose) (HPC)
[9] = dose: 100.0 mg/kg/injection, schedule: Q01DX001 (ip), vehicle: saline
[10] = dose: 200.0 mg/kg/injection, schedule: Q01DX001 (ip), vehicle: saline
[11] = dose: 400.0 mg/kg/injection, schedule: Q01DX001 (ip), vehicle: saline
[12] = dose: 100.0 mg/kg/injection, schedule: Q01DX001 (ip), vehicle: carboxymethylcellulose (CMC)

Measured: T/C

CC(C)CSC(C)C
inactive: [1] 98 % of control | [2] 96 % of control | [3] 107 % of control | dose: 200.0 mg/kg/injection, schedule: Q01DX009 (ip), vehicle: saline with Tween-80 91 % of control | [4] 105 % of control | [5] 87 % of control

Cc1ccc(S(=O)(=O)NC(=O)NCc2cccc(Cl)c2)cc1
inactive: [6] 101 % of control | [7] 101 % of control | [8] 96 % of control

NCCSC1(O)C(=O)c2ccccc2-c2ccccc21 (stereo not given)
inactive: dose: 37.5 mg/kg/injection, schedule: Q04DX003 (ip), vehicle: saline 94 % of control | dose: 75.0 mg/kg/injection, schedule: Q01DX001 (ip), vehicle: saline 101 % of control | dose: 75.0 mg/kg/injection, schedule: Q04DX003 (ip), vehicle: saline 103 % of control | dose: 150.0 mg/kg/injection, schedule: Q01DX001 (ip), vehicle: saline 95 % of control | dose: 150.0 mg/kg/injection, schedule: Q04DX003 (ip), vehicle: saline 95 % of control

O=C1c2ccccc2C(=O)N1Cc1cccc(Nc2cc(=O)[nH]c(=O)[nH]2)c1
inactive: dose: 200.0 mg/kg/injection, schedule: Q01DX001 (ip), vehicle: saline with Tween-80 95 % of control

COC(=O)CS(=O)(=O)C(C)(C)C(=O)c1ccccc1
inactive: dose: 37.5 mg/kg/injection, schedule: Q01DX009 (ip), vehicle: saline 96 % of control | dose: 75.0 mg/kg/injection, schedule: Q01DX009 (ip), vehicle: saline 92 % of control | dose: 150.0 mg/kg/injection, schedule: Q01DX009 (ip), vehicle: saline 100 % of control | dose: 300.0 mg/kg/injection, schedule: Q01DX009 (ip), vehicle: saline 94 % of control

COc1ccccc1N(N=O)C(=O)CC(C)=O
inactive: [9] 101 % of control | [10] 101 % of control | [11] 101 % of control

CCCCCCCCCCNC(=S)NNC(=O)CCCC(=O)NNC(=S)NCCCCCCCCCC
inactive: dose: 50.0 mg/kg/injection, schedule: Q01DX001 (ip), vehicle: saline 96 % of control | [9] 96 % of control | [10] 90 % of control | [11] 96 % of control

C=Cc1cc(C)cc(OC)c1O
inactive: dose: 50.0 mg/kg/injection, schedule: Q01DX009 (ip), vehicle: Klucel (hydroxypropylcellulose) (HPC) 87 % of control | [6] 89 % of control | [7] 87 % of control

O=[N+]([O-])c1ccc(OCc2cccc(Cl)c2S(=O)(=O)F)c(Cl)c1
inactive: dose: 100.0 mg/kg/injection, schedule: Q04DX003 (ip), vehicle: gum acacia 98 % of control | dose: 200.0 mg/kg/injection, schedule: Q04DX003 (ip), vehicle: gum acacia 104 % of control | dose: 400.0 mg/kg/injection, schedule: Q04DX003 (ip), vehicle: gum acacia 97 % of control

COc1ccc(NC(=O)Oc2ccc(Cl)cc2C)c(OC)c1
inactive: [6] 104 % of control | [7] 108 % of control | [8] 108 % of control

c1c(NC2=NCCO2)cc2c3c1CCCN3CCC2
inactive: dose: 50.0 mg/kg/injection, schedule: Q01DX009 (ip), vehicle: saline 95 % of control

Cc1ccc(NC(=O)N2CCN(c3ccccc3)CC2)c([N+](=O)[O-])c1
inactive: dose: 100.0 mg/kg/injection, schedule: Q04DX003 (ip), vehicle: Klucel (hydroxypropylcellulose) (HPC) 96 % of control | dose: 200.0 mg/kg/injection, schedule: Q04DX003 (ip), vehicle: Klucel (hydroxypropylcellulose) (HPC) 102 % of control | dose: 400.0 mg/kg/injection, schedule: Q04DX003 (ip), vehicle: Klucel (hydroxypropylcellulose) (HPC) 91 % of control

Cc1ccc(NC(=O)N(CCO)N=O)cc1
inactive: dose: 12.5 mg/kg/injection, schedule: Q01DX001 (ip), vehicle: carboxymethylcellulose (CMC) 110 % of control | dose: 25.0 mg/kg/injection, schedule: Q01DX001 (ip), vehicle: carboxymethylcellulose (CMC) 105 % of control | dose: 50.0 mg/kg/injection, schedule: Q01DX001 (ip), vehicle: carboxymethylcellulose (CMC) 103 % of control and 108 % of control | [12] 100 % of control

CO/N=C(/C)C1(O)Cc2c(O)c3c(c(O)c2C(OC2CC(N)C(O)C(C)O2)C1)C(=O)c1c(OC)cccc1C3=O (stereo not given)
inactive: dose: 1.0 mg/kg/injection, schedule: Q01DX009 (ip), vehicle: water 109 % of control | dose: 2.0 mg/kg/injection, schedule: Q01DX009 (ip), vehicle: water 109 % of control | dose: 2.0 mg/kg/injection, schedule: Q04DX003 (ip), vehicle: water 101 % of control | dose: 3.12 mg/kg/injection, schedule: Q01DX009 (ip), vehicle: saline with Tween-80 111 % of control | dose: 4.0 mg/kg/injection, schedule: Q01DX009 (ip), vehicle: water 108 % of control | dose: 4.0 mg/kg/injection, schedule: Q04DX003 (ip), vehicle: water 100 % of control | dose: 6.25 mg/kg/injection, schedule: Q01DX009 (ip), vehicle: saline with Tween-80 106 % of control | dose: 8.0 mg/kg/injection, schedule: Q01DX009 (ip), vehicle: water 106 % of control | dose: 8.0 mg/kg/injection, schedule: Q04DX003 (ip), vehicle: water 101 % of control | dose: 12.5 mg/kg/injection, schedule: Q01DX009 (ip), vehicle: saline with Tween-80 106 % of control | dose: 12.5 mg/kg/injection, schedule: Q04DX003 (ip), vehicle: saline 95 % of control | dose: 125.0 micrograms/kg/injection, schedule: Q04DX003 (ip), vehicle: water 100 % of control | dose: 250.0 micrograms/kg/injection, schedule: Q04DX003 (ip), vehicle: water 101 % of control | dose: 500.0 micrograms/kg/injection, schedule: Q04DX003 (ip), vehicle: water 97 % of control | dose: 1000.0 micrograms/kg/injection, schedule: Q04DX003 (ip), vehicle: water 105 % of control | dose: 2000.0 micrograms/kg/injection, schedule: Q04DX003 (ip), vehicle: water 102 % of control

COC1OC(COC(=O)c2ccc([N+](=O)[O-])cc2)C2OC12 (stereo not given)
inactive: [12] 100 % of control | [9] 101 % of control | dose: 200.0 mg/kg/injection, schedule: Q01DX001 (ip), vehicle: carboxymethylcellulose (CMC) 95 % of control | [10] 101 % of control and 109 % of control | dose: 400.0 mg/kg/injection, schedule: Q01DX001 (ip), vehicle: carboxymethylcellulose (CMC) 89 % of control | [11] 101 % of control

C[C@]12CC[C@H](OC(=O)Cc3ccc(N(CCCl)CCCl)cc3)CC1=CC[C@@H]1[C@@H]2CC[C@]2(C)C(=O)CC[C@@H]12
inactive: [3] 88 % of control | [4] 88 % of control | [5] 88 % of control

O=C1CSC(=S)N1c1cccc(C(F)(F)F)c1
inactive: [3] 108 % of control | [4] 101 % of control | [5] 104 % of control

CNC(=O)NCCN(C)c1ccccc1
inactive: dose: 100.0 mg/kg/injection, schedule: Q04DX002 (ip), vehicle: Klucel (hydroxypropylcellulose) (HPC) 92 % of control | dose: 200.0 mg/kg/injection, schedule: Q04DX002 (ip), vehicle: Klucel (hydroxypropylcellulose) (HPC) 110 % of control | dose: 400.0 mg/kg/injection, schedule: Q04DX002 (ip), vehicle: Klucel (hydroxypropylcellulose) (HPC) 106 % of control

CCn1c(O)c(C=N)c(=O)n(CC)c1=O
inactive: dose: 100.0 mg/kg/injection, schedule: Q01DX009 (ip), vehicle: saline 95 % of control | dose: 100.0 mg/kg/injection, schedule: Q04DX003 (ip), vehicle: saline 106 % of control | dose: 200.0 mg/kg/injection, schedule: Q04DX003 (ip), vehicle: saline 93 % of control | dose: 400.0 mg/kg/injection, schedule: Q04DX003 (ip), vehicle: saline 113 % of control

COc1cc(/C=N/NC(=O)CNC(=O)NCc2ccccc2)ccc1O
inactive: [1] 92 % of control | [2] 95 % of control
